Source: the NIST ThermoML archive (doi:10.1016/j.jct.2003.11.012)

How the values were obtained:
[1] = Molar enthalpy of transition or fusion
[2] = molar heat capacity at saturation pressure

C1CCC(SC2CCCCC2)CC1 [dicyclohexyl sulfide]
[1]
Conditions | Molar enthalpy of transition or fusion [kcal/mol]
Crystal 1 | 1.358
Crystal 2 | 2.392

[2]
Conditions | molar heat capacity [J/K/mol]
5 K, Crystal 3 | 0.65
7.076 K, Crystal 3, Vacuum adiabatic calorimetry | 1.83
8.093 K, Crystal 3, Vacuum adiabatic calorimetry | 2.68
9.092 K, Crystal 3, Vacuum adiabatic calorimetry | 3.7
10 K, Crystal 3 | 4.79
10.12 K, Crystal 3, Vacuum adiabatic calorimetry | 4.94
11.22 K, Crystal 3, Vacuum adiabatic calorimetry | 6.32
12.48 K, Crystal 3, Vacuum adiabatic calorimetry | 8.05
13.88 K, Crystal 3, Vacuum adiabatic calorimetry | 10.26
15 K, Crystal 3 | 12.08
15.44 K, Crystal 3, Vacuum adiabatic calorimetry | 12.81
17.17 K, Crystal 3, Vacuum adiabatic calorimetry | 15.8
19.09 K, Crystal 3, Vacuum adiabatic calorimetry | 19.16
20 K, Crystal 3 | 20.77
21.2 K, Crystal 3, Vacuum adiabatic calorimetry | 22.91
23.53 K, Crystal 3, Vacuum adiabatic calorimetry | 27.09
25 K, Crystal 3 | 29.63
26.12 K, Crystal 3, Vacuum adiabatic calorimetry | 31.54
29 K, Crystal 3, Vacuum adiabatic calorimetry | 36.28
30 K, Crystal 3 | 37.98
32.2 K, Crystal 3, Vacuum adiabatic calorimetry | 41.46
33.51 K, Crystal 3, Vacuum adiabatic calorimetry | 43.05
35 K, Crystal 3 | 45.26
35.74 K, Crystal 3, Vacuum adiabatic calorimetry | 46.49
36 K, Crystal 3 | 46.79
37 K, Crystal 3 | 48.49
37.54 K, Crystal 3, Vacuum adiabatic calorimetry | 49.5
38 K, Crystal 3 | 50.1
39 K, Crystal 3 | 53.43
39.08 K, Crystal 3, Vacuum adiabatic calorimetry | 53.4
40 K, Crystal 3 | 59.33
40.2 K, Crystal 3 | 61.57
40.4 K, Crystal 3 | 65.04
40.6 K, Crystal 3 | 70.56
40.8 K, Crystal 3 | 79.24
41 K, Crystal 3 | 92.56
41.1 K, Crystal 3 | 101.56
41.2 K, Crystal 3 | 112.49
41.3 K, Crystal 3 | 125.67
41.35 K, Crystal 2 | 132.62
41.35 K, Crystal 3 | 132.62
41.4 K, Crystal 2 | 124.85
41.5 K, Crystal 2 | 113.3
41.6 K, Crystal 2 | 103.72
41.7 K, Crystal 2 | 95.82
41.8 K, Crystal 2 | 89.37
41.9 K, Crystal 2 | 84.14
42 K, Crystal 2 | 79.94
42.1 K, Crystal 2 | 76.58
42.2 K, Crystal 2 | 73.92
42.3 K, Crystal 2 | 71.85
42.4 K, Crystal 2 | 70.24
42.5 K, Crystal 2 | 68.99
42.6 K, Crystal 2 | 68.04
42.7 K, Crystal 2 | 67.3
42.8 K, Crystal 2 | 66.72
42.9 K, Crystal 2 | 66.27
43 K, Crystal 2 | 65.89
44 K, Crystal 2 | 63.21
44.5 K, Crystal 2, Vacuum adiabatic calorimetry | 62.94
45 K, Crystal 2 | 62.78
45.83 K, Crystal 2, Vacuum adiabatic calorimetry | 62.98
46 K, Crystal 2 | 63.03
48 K, Crystal 2 | 64
48.81 K, Crystal 2, Vacuum adiabatic calorimetry | 64.58
50 K, Crystal 2 | 65.53
53.62 K, Crystal 2, Vacuum adiabatic calorimetry | 68.84
54.45 K, Crystal 2, Vacuum adiabatic calorimetry | 69.65
55 K, Crystal 2 | 70.15
58.57 K, Crystal 2, Vacuum adiabatic calorimetry | 73.26
60 K, Crystal 2 | 74.51
64.06 K, Crystal 2, Vacuum adiabatic calorimetry | 78.07
70 K, Crystal 2 | 83.42
70.24 K, Crystal 2, Vacuum adiabatic calorimetry | 83.65
77.05 K, Crystal 2, Vacuum adiabatic calorimetry | 89.46
80 K, Crystal 2 | 91.91
82.72 K, Crystal 2, Vacuum adiabatic calorimetry | 94.2
84.66 K, Crystal 2, Vacuum adiabatic calorimetry | 95.88
89.87 K, Crystal 2, Vacuum adiabatic calorimetry | 100.11
90 K, Crystal 2 | 100.24
93.06 K, Crystal 2, Vacuum adiabatic calorimetry | 102.76
98.25 K, Crystal 2, Vacuum adiabatic calorimetry | 106.88
100 K, Crystal 2 | 108.32
101.97 K, Crystal 2, Vacuum adiabatic calorimetry | 109.92
107.36 K, Crystal 2, Vacuum adiabatic calorimetry | 114.09
